Measured values reported in PMC11870037 (Molecules, 2024).
Where two headings read alike, the source gives them in different places.

Key:
[1] = biological target: T1, NET (Rattus norvegicus, UniProt Q63380); assay: biochemical; conditions: Receptor Affinity Ki ± SEM NET, rat hippocampal membrane, [3H]nisoxetine; means ± SEM of three experiments
[2] = biological target: T2, SERT (Rattus norvegicus, UniProt P31652); assay: biochemical; assay type: binding; conditions: for potency ratio among SERT, NET, and H3: ratio of binding Ki values for SERT
T2 construct: [3H]-paroxetine, rat cerebral cortex; from tissue; host or cells: rat cerebral cortex (membranes / crude synaptosomes)

[3] = biological target: adrenergic α1 receptor; assay: Adrenergic α1 receptor binding assay ([3H]prazosin); conditions: rat cerebral cortex, means ± SEM of three experiments, read-out: Receptor Affinity Ki ± SEM α1
[4] = biological target: T3, hERG potassium channel (Homo sapiens, UniProt Q12809); assay: hERG whole-cell patch clamp in HEK 293 cells; assay type: cell-based
T3 construct: expressed in transfected cells; host or cells: HEK 293

[5] = system: mice; assay: Tail suspension test (TST); assay type: in vivo, mouse; conditions: oral, immobility duration
[6] = system: mice; conditions: oral, immobility duration
[7] = system: female rats; conditions: females; cited from earlier work
[8] = biological target: T1, NET; assay: Monoamine uptake transporter assay, [3H]NE uptake by NET; assay type: biochemical; conditions: 10 μM, n = 3
[9] = biological target: recombinant hH3R (Homo sapiens, UniProt Q9Y5N1); assay: H3 receptor intrinsic activity assay ([35S]GTPγS binding); assay type: biochemical; conditions: 10 μM, n = 3
[10] = rat cerebral cortex, [3H]-paroxetine, means ± SEM of three experiments, read-out: Receptor Affinity Ki ± SEM SERT

T2 sequence (P31652 whole entry): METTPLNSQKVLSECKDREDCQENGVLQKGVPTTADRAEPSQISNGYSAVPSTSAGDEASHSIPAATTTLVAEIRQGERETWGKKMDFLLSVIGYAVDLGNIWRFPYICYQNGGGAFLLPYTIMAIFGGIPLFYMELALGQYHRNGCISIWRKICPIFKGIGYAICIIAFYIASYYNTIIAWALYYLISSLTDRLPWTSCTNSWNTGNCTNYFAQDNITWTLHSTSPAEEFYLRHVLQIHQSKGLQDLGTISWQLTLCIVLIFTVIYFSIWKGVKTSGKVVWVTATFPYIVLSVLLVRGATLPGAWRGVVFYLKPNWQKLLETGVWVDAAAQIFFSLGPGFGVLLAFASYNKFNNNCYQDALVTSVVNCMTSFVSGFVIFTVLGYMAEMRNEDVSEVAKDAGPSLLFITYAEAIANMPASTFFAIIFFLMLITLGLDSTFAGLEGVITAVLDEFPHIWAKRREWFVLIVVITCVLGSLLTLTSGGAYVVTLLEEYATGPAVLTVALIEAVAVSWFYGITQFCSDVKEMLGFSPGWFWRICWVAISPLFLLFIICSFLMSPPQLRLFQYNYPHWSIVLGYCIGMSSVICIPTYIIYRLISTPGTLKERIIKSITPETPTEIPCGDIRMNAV
T1 sequence (Q63380 1-617): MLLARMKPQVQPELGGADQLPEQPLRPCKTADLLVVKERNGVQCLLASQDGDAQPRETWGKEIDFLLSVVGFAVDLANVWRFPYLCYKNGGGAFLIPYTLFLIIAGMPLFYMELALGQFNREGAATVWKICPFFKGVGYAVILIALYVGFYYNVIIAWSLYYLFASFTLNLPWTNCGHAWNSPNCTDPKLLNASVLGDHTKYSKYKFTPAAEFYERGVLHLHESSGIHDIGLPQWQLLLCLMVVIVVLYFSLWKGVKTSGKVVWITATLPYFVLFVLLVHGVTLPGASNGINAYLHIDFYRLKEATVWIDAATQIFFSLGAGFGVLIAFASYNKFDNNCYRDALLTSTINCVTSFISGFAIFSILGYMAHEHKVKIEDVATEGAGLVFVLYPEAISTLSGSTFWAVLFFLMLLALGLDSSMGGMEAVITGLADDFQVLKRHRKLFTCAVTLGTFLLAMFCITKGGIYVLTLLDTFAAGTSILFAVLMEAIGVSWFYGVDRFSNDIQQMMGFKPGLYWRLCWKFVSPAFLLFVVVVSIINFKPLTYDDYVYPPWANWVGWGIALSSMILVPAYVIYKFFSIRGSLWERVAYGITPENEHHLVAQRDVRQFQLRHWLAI
T3 sequence (Q12809 whole entry): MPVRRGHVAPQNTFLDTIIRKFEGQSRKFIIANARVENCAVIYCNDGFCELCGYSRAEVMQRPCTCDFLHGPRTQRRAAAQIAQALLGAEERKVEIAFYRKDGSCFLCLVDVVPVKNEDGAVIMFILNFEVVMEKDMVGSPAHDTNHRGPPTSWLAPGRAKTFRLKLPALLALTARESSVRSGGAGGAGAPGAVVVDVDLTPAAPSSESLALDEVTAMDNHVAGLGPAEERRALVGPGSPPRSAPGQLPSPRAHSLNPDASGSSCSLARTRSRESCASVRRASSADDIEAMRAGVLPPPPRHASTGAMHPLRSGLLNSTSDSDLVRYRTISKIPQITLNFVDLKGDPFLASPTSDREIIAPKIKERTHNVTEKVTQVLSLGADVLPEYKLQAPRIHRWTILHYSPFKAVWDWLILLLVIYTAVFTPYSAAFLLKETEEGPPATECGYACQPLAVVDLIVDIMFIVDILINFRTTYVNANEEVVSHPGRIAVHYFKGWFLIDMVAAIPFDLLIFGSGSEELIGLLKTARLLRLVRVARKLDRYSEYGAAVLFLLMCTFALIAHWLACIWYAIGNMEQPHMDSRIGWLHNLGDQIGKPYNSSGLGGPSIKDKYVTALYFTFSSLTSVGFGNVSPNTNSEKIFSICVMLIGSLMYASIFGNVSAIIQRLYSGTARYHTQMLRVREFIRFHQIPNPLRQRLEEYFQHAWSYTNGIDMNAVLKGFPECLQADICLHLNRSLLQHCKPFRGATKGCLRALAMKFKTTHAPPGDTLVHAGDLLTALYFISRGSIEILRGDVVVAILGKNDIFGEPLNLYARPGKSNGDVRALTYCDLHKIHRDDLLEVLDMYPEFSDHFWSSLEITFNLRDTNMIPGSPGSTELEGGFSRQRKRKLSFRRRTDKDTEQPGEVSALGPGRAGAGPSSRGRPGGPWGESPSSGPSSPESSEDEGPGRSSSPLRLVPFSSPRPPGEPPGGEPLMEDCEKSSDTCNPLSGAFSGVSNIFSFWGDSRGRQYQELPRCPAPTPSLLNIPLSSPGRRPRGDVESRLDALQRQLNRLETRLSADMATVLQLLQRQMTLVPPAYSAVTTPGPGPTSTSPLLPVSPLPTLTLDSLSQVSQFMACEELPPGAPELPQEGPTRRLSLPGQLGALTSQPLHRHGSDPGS
recombinant hH3R, sequence (Q9Y5N1 whole entry): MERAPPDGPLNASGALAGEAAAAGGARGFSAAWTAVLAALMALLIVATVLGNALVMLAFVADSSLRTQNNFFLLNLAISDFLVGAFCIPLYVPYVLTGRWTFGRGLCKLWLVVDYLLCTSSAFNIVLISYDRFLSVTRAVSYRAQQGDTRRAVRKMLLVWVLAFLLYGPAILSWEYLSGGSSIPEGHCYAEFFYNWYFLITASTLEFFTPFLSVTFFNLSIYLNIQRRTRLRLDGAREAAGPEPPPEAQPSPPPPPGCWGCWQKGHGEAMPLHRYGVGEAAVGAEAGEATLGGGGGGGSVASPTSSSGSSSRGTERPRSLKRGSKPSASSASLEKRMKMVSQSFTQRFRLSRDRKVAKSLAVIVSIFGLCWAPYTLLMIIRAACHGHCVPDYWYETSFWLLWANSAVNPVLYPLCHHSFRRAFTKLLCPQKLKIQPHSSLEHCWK

SMILES | Ki [1] [µM] | Ki [2, 10] [µM] | melting point [°C] | other results
CN(C)CCC(Oc1cccc2c1OCO2)c1cccc(OCCCN2CCCCC2)c1.O=C(O)C(=O)O (centres unmarked) [Compound 11i, 3-(benzo[d][1,3]dioxol-4-yloxy)-N,N-dimethyl-3-(3-(3-(piperidin-1-yl)propoxy)phenyl)propan-1-amine oxalate] | 0.105 ± 0.0098 | 0.236 ± 0.0261 | 81 to 83 | –
CC1CCN(CCCOc2ccc(C(CCN(C)C)Oc3cccc4c3OCO4)cc2)CC1.O=C(O)C(=O)O (centres unmarked) [Compound 11r, 3-(benzo[d][1,3]dioxol-4-yloxy)-N,N-dimethyl-3-(4-(3-(4-methylpiperidin-1-yl)propoxy)phenyl)propan-1-amine oxalate] | 0.0383 ± 0.0035 | 0.0271 ± 0.0016 | 126 to 128 | –
CN(C)CCC(Oc1cccc2c1OCO2)c1ccc(OCCN2CCCCC2)cc1.O=C(O)C(=O)O (centres unmarked) [Compound 11n, 3-(benzo[d][1,3]dioxol-4-yloxy)-N,N-dimethyl-3-(4-(2-(piperidin-1-yl)ethoxy)phenyl)propan-1-amine oxalate] | 0.0373 ± 0.0042 | 0.0261 ± 0.0023 | 116 to 118 | –
CN(C)CCC(Oc1cccc2c1OCO2)c1ccc(OCCCN2CCCC2)cc1.O=C(O)C(=O)O (centres unmarked) [Compound 11a, 3-(benzo[d][1,3]dioxol-4-yloxy)-N,N-dimethyl-3-(4-(3-(pyrrolidin-1-yl)propoxy)phenyl)propan-1-amine oxalate] | 0.0192 ± 0.0023 | 0.0103 ± 0.0009 | 138 to 140 | Ki [3]: 0.428 ± 0.0353 µM; IC50 [4]: 0.819 ± 0.0904 µM; potency ratio among SERT, NET, and H3 [2]: < 10 fold
CN(C)CCC(Oc1cccc2c1OCO2)c1cccc(OCCCN2CCCC2)c1.O=C(O)C(=O)O (centres unmarked) [Compound 11h, 3-(benzo[d][1,3]dioxol-4-yloxy)-N,N-dimethyl-3-(3-(3-(pyrrolidin-1-yl)propoxy)phenyl)propan-1-amine oxalate] | 0.144 ± 0.0135 | 0.192 ± 0.0188 | 104 to 106 | –
CNCC[C@H](Oc1cccc2ccccc12)c1cccs1 [Duloxetine, reference compound] | – | – | – | Ki [3]: 1.01 ± 0.0978 µM; minimal effective dose (MED) in TST [5]: 16 mg/kg; minimal effective dose (MED) in FST [6]: 16 mg/kg; LD50 [7]: 279 mg/kg
CN(C)CCC(Oc1cccc2c1OCO2)c1ccc(OCCCN2CCC(C#N)CC2)cc1.O=C(O)C(=O)O (centres unmarked) [Compound 11v, 1-(3-(4-(1-(benzo[d][1,3]dioxol-4-yloxy)-3-(dimethylamino)propyl)phenoxy)propyl)piperidine-4-carbonitrile oxalate] | 0.0486 ± 0.0064 | 0.0605 ± 0.0057 | 148 to 151 | –
CNCCC(Oc1ccccc1OC)c1ccccc1 (centres unmarked) [Nisoxetine, reference compound] | – | – | – | inhibition at 10 µM [8]: 99.8 ± 1.9%
CN(C)CCC(Oc1cccc2c1OCO2)c1cccc(OCCCN2CCOCC2)c1.O=C(O)C(=O)O (centres unmarked) [Compound 11j, 3-(benzo[d][1,3]dioxol-4-yloxy)-N,N-dimethyl-3-(3-(3-morpholinopropoxy)phenyl)propan-1-amine oxalate] | 0.153 ± 0.0127 | 0.465 ± 0.0398 | 95 to 98 | –
CN(C)CCC(Oc1cccc2c1OCO2)c1ccc(OCCCN2CCC(Cl)CC2)cc1.O=C(O)C(=O)O (centres unmarked) [Compound 11u, 3-(benzo[d][1,3]dioxol-4-yloxy)-3-(4-(3-(4-chloropiperidin-1-yl)propoxy)phenyl)-N,N-dimethylpropan-1-amine oxalate] | 0.0502 ± 0.0049 | 0.0395 ± 0.004 | 145 to 146 | –
CN(C)CCC(Oc1cccc2c1OCO2)c1ccc(OCCCN2CCC(F)CC2)cc1.O=C(O)C(=O)O (centres unmarked) [Compound 11t, 3-(benzo[d][1,3]dioxol-4-yloxy)-3-(4-(3-(4-fluoropiperidin-1-yl)propoxy)phenyl)-N,N-dimethylpropan-1-amine oxalate] | 0.0425 ± 0.0046 | 0.0342 ± 0.0028 | 134 to 136 | –
CCN1CCN(CCCOc2ccc(C(CCN(C)C)Oc3cccc4c3OCO4)cc2)CC1.O=C(O)C(=O)O (centres unmarked) [Compound 11e, 3-(benzo[d][1,3]dioxol-4-yloxy)-3-(4-(3-(4-ethylpiperazin-1-yl)propoxy)phenyl)-N,N-dimethylpropan-1-amine oxalate] | 0.0669 ± 0.0051 | 0.0396 ± 0.0033 | 187 to 189 | –
CN(C)CCC(Oc1cccc2c1OCO2)c1ccc(OCCCCN2CCCCC2)cc1.O=C(O)C(=O)O (centres unmarked) [Compound 11o, 3-(benzo[d][1,3]dioxol-4-yloxy)-N,N-dimethyl-3-(4-(4-(piperidin-1-yl)butoxy)phenyl)propan-1-amine oxalate] | 0.0646 ± 0.0055 | 0.0492 ± 0.0048 | 169 to 171 | –
CN(C)CCCOc1ccc(C(CCN(C)C)Oc2cccc3c2OCO3)cc1.O=C(O)C(=O)O (centres unmarked) [Compound 11l, 3-(benzo[d][1,3]dioxol-4-yloxy)-3-(4-(3-(dimethylamino)propoxy)phenyl)-N,N-dimethylpropan-1-amine oxalate] | 0.115 ± 0.0123 | 0.0171 ± 0.0016 | 121 to 122 | –
CC1CCCCN1CCCOc1ccc(C(CCN(C)C)Oc2cccc3c2OCO3)cc1.O=C(O)C(=O)O (centres unmarked) [Compound 11p, 3-(benzo[d][1,3]dioxol-4-yloxy)-N,N-dimethyl-3-(4-(3-(2-methylpiperidin-1-yl)propoxy)phenyl)propan-1-amine oxalate] | 0.0354 ± 0.0032 | 0.0206 ± 0.0019 | 129 to 131 | –
CC1CC(C)CN(CCCOc2ccc(C(CCN(C)C)Oc3cccc4c3OCO4)cc2)C1.O=C(O)C(=O)O (centres unmarked) [Compound 11s, 3-(benzo[d][1,3]dioxol-4-yloxy)-3-(4-(3-(3,5-dimethylpiperidin-1-yl)propoxy)phenyl)-N,N-dimethylpropan-1-amine oxalate] | 0.0251 ± 0.0028 | 0.0303 ± 0.0026 | 140 to 142 | –
CC(C)N1CCN(CCCOc2ccc(C(CCN(C)C)Oc3cccc4c3OCO4)cc2)CC1.O=C(O)C(=O)O (centres unmarked) [Compound 11f, 3-(benzo[d][1,3]dioxol-4-yloxy)-3-(4-(3-(4-isopropylpiperazin-1-yl)propoxy)phenyl)-N,N-dimethylpropan-1-amine oxalate] | 0.0579 ± 0.0064 | 0.0357 ± 0.0031 | 160 to 162 | –
CCN(CC)CCCOc1ccc(C(CCN(C)C)Oc2cccc3c2OCO3)cc1.O=C(O)C(=O)O (centres unmarked) [Compound 11m, 3-(benzo[d][1,3]dioxol-4-yloxy)-3-(4-(3-(diethylamino)propoxy)phenyl)-N,N-dimethylpropan-1-amine oxalate] | 0.0852 ± 0.0091 | 0.0284 ± 0.0113 | 98 to 100 | –
CN(C)CCC(Oc1cccc2c1OCO2)c1ccc(OCCCN2CCN(C)CC2)cc1.O=C(O)C(=O)O (centres unmarked) [Compound 11d, 3-(benzo[d][1,3]dioxol-4-yloxy)-N,N-dimethyl-3-(4-(3-(4-methylpiperazin-1-yl)propoxy)phenyl)propan-1-amine oxalate] | 0.0868 ± 0.0091 | 0.0523 ± 0.0028 | 155 to 156 | –
CN(C)CCC(Oc1cccc2c1OCO2)c1ccc(OCCCN2CC3CCCC3C2)cc1.O=C(O)C(=O)O (centres unmarked) [Compound 11g, 3-(benzo[d][1,3]dioxol-4-yloxy)-3-(4-(3-(hexahydrocyclopenta[c]pyrrol-2(1H)-yl)propoxy)phenyl)-N,N-dimethylpropan-1-amine oxalate] | 0.0482 ± 0.0042 | 0.0313 ± 0.004 | 110 to 112 | –
CC1CCCN(CCCOc2ccc(C(CCN(C)C)Oc3cccc4c3OCO4)cc2)C1.O=C(O)C(=O)O (centres unmarked) [Compound 11q, 3-(benzo[d][1,3]dioxol-4-yloxy)-N,N-dimethyl-3-(4-(3-(3-methylpiperidin-1-yl)propoxy)phenyl)propan-1-amine oxalate] | 0.0207 ± 0.0021 | 0.0121 ± 0.0016 | 130 to 132 | Ki [3]: 0.307 ± 0.0281 µM; IC50 [4]: 0.78 ± 0.0685 µM; potency ratio among SERT, NET, and H3 [2]: < 10 fold
Clc1ccc(CCCOCCCN2CCCCC2)cc1 [Pitolisant, reference compound] | > 1 | – | – | Ki ([2]; Receptor Affinity Ki ± SEM SERT): > 1 µM; inhibition at 10 µM [9]: 99.3 ± 2.5%
CC(C)N1CCN(CCCOc2cccc(C(CCN(C)C)Oc3cccc4c3OCO4)c2)CC1.O=C(O)C(=O)O (centres unmarked) [Compound 11k, 3-(benzo[d][1,3]dioxol-4-yloxy)-3-(3-(3-(4-isopropylpiperazin-1-yl)propoxy)phenyl)-N,N-dimethylpropan-1-amine oxalate] | 0.111 ± 0.0103 | 0.163 ± 0.0176 | 185 to 186 | –
CN(C)CCC(Oc1cccc2c1OCO2)c1ccc(OCCCN2CCOCC2)cc1.O=C(O)C(=O)O (centres unmarked) [Compound 11c, 3-(benzo[d][1,3]dioxol-4-yloxy)-N,N-dimethyl-3-(4-(3-morpholinopropoxy)phenyl)propan-1-amine oxalate] | 0.0326 ± 0.0027 | 0.0432 ± 0.0038 | 169 to 170 | –
